According to patent publication US6656921B1, “Use of zinc hyaluronate against peptic ulcer” (Richter Gedeon Vegyeszeti Gyar RT., priority 1997, dated 2003):
Marks after values point to notes of the source that are not given here.

Experiments:
Format in all cases: in vivo, rat
[1] = test system: acetic acid induced chronic gastric ulcer; test: Inhibition of acetic acid induced chronic gastric ulcer; conditions: for Ulcerated area mm^2 ± S.E.M.: day 5 to 14 after surgery
Procedure: Female, RG Wistar rats weighing between 120-150 g were used. Before the surgery animals were deprived of food for 24 hours but received water ad libitum. The chronic gastric ulcer was induced by the injection of 25 μl/animal of 20% (v/v) acetic acid into the gastric wall under light ether anaesthesia according to the method similar to that described by Takagi et al. (1969). The oral treatment with the test compounds was started five days after the surgery and continued in a once-a-day regimen up to the 14th day. The animals were killed on the 15th day and their stomachs were dissected. The severity of ulceration was evaluated by the measurement of the diameter of the ulcers and the area affected was calculated. The healing effect was expressed as differences in percentage between the control and test group values.

[2] = test system: acidified ethanol induced gastric damage; test: Effect of L-NAME (endogenous NO) on protection against acidified-ethanol induced gastric damage
Procedure: To study the mechanism of action of the compound to be tested, the involvement of endogenous NO in the development of acidified-ethanol induced gastric damage was also studied by intraperitoneal administration of L-N^G-nitroarginine methyl ester (L-NAME). L-NAME at a dose of 25 mg/kg was injected 15 minutes before the test compound. In subsequent experiments the test compound (p.o.), L-NAME (25 mg/kg i.p.), L-arginine (400 mg/kg i.v.) were administered 30, 45 or 60 minutes before oral administration of acidified-ethanol.
The connection between the cytoprotective effect of zinc hyaluronate and endogenic NO was studied by using an inhibitor of the nitrogen(II) oxide biosynthesis namely, N^G-nitro-L-arginine methyl ester (L-NAME). Considering that zinc hyaluronate(II) and zinc hyaluronate(M) had shown the same activity in acidified ethanol test, the latter was the only one tested in this experiment.

[3] = test system: stress-induced gastric lesion; test: Inhibition of stress (cold-restraint) induced gastric lesions; conditions: for Lesion score/stomach ± S.E.M.: 30 min before cold-restraint stress, score 0-3; for Inhibition: 30 min before stress
Procedure: Female RG Wistar rats weighing between 120-150 g were used. Before the experiments animals were fasted for 24 hours but received water ad libitum. Experiments were carried out according to the technique similar to that described by Senay et al., (1967). [Proc. Soc. Exp. Biol. Med.124,1221, (1967)].
Test compounds were given orally. 30 minutes later the animals were immobilized in plastic restraint boxes then placed into a refrigerator at 4° C.-8° C. temperature. Four hours later the animals were removed from both the refrigerator and the restraint boxes and one hour later they were sacrificed by cervical dislocation. The stomachs were removed, opened along the greater curvature and hemorrhagic lesions were scored by a zero to 3 scale: stomachs free from any damage were given a score of 0, stomachs with only a few hemorrhagic lesion were given a score of 1, stomachs with more lesion numbers than 10 were given a score of 2, and stomachs with a lot of lesions were characterized with a score of 3.
The ED50 were defined as the dose needed to decrease the score of gastric lesions by 50%.

[4] = test system: indomethacin induced gastric lesion; test: Inhibition of indomethacin induced gastric lesion; conditions: for Inhibition: 30 min before indomethacin; for Lesion number/stomach ± S.E.M.: 30 min before indomethacin 40 mg/kg s.c.
Procedure: 2. Inhibition of Indomethacin Induced Gastric Lesion Female RG Wistar rats weighing between 120-150 g were used. Before the experiments animals were fasted for 24 hours but received water ad libitum. Test compounds were given orally, 30 minutes later the animals were treated subcutaneously with indomethacin at a dose of 40 mg/kg. Four hours after the irritating indomethacin administration the animals were killed by cervical dislocation. The stomachs were removed, opened along the greater curvature and the hemorrhagic lesions were counted on the glandular stomach.
ED50 value represents the dose which protects the stomach by 50 % from the damaging effect of indomethacin.

[5] = test system: gastrointestinal motility; test: Gastrointestinal motility in the charcoal propulsion test; conditions: 100 mg/kg p.o.
Procedure: Experiments were performed on female, RG-Wistar rats weighing 120-140 g, which were fasted for 24 hours but received water ad libitum.
The experimental procedure was carried out according to the technique similar to that described of P. A. Janssen and A. J. Jageneau [J. Pharm. Pharmacel. 9, 381 (1957)].
Test compounds were given orally at a dose of 100 mg/kg. Control animals received physiological saline solution instead of test compounds. 30 minutes later, the 5% (w/v) charcoal suspension was administered orally at a volume of 0.5 ml/animal. 60 minutes after the charcoal treatment the animals were sacrificed by cervical dislocation. The intestine from pylorus to cecum was removed, its lengths measured along with the distance traversed by the charcoal meal.
Motility was expressed as the ratio of length of charcoal suspension to the length of the whole intestine.

[6] = test system: platelet activating factor (PAF) induced gastric lesion; test: Inhibition of gastric damage induced by platelet activating factor (PAF); conditions: for Inhibition: 30 min before PAF; for Lesion score/stomach ± S.E.M.: 30 min before PAF infusion, score 0-3
Procedure: Male, RG-Wistar rats weighing between 200-250 g were used. Before the experiments animals were fasted for 24 hours but received water ad libitum. Experiments were carried out according to the technique similar to that described by Wallace and Whittle (1986). [Br.J.Pharmac., 89,415, (1986)]. Animals were anaesthetized by intraperitoneal administration of urethane at a dose of 1 g/kg in a volume of 10 ml/kg. Femoral vein was then prepared and cannulated for administration of ulcerogenic PAF. After the surgery PAF was infused intravenously at a rate of 0.1 ml/min for ten minutes at a dose of 200 ng/kg/min. Test compounds were given 30 minutes before the PAF challenge. One hour after the infusion of PAF animals were sacrificed by cervical dislocation; their stomachs were removed and opened along the greater curvature. The hemorrhagic erosions were evaluated by a zero to three scoring system.

[7] = D-Arg + L-NAME + ZH/M, 400 + 25 + 50 mg/kg
[8] = L-Arg + L-NAME + ZH/M, 400 + 25 + 50 mg/kg

zinc hyaluronate [Zinc hyaluronate (M)]
Ulcerated area mm^2 ± S.E.M. ([1]; 0.1 mg/kg p.o. once a day): 9.4 ± 2.3 mm^2
Ulcerated area mm^2 ± S.E.M. ([1]; 1.0 mg/kg p.o. once a day): 7.6 ± 1.4 mm^2
Effect on healing of acetic acid induced chronic ulcer (in words) ([1]; rat, in vivo): accelerated the healing
Inhibition (compared with the vehicle + vehicle group) [2, 7]: 48.4%
Lesion length/stomach mm ± S.E.M. [2, 7]: 31.2 ± 3.5*d mm
Inhibition (compared with the vehicle + vehicle group) [2, 8]: 60.2%
Lesion length/stomach mm ± S.E.M. [2, 8]: 24.1 ± 4.4*c mm
Effect of L-NAME pretreatment on the gastroprotective activity (in words) ([2]; L-NAME 25 mg/kg): considerably reduced
Inhibition (compared with the vehicle + vehicle group) ([2]; L-NAME + ZH/M, 25 + 50 mg/kg): 31.9%
Lesion length/stomach mm ± S.E.M. ([2]; L-NAME + ZH/M, 25 + 50 mg/kg): 41.2 ± 4.6*b mm
Inhibition (compared with the vehicle + vehicle group) ([2]; Vehicle + ZH/M, 0 + 50 mg/kg): 69.6%
Lesion length/stomach mm ± S.E.M. ([2]; Vehicle + ZH/M, 0 + 50 mg/kg): 18.4 ± 2.3 mm
Lesion score/stomach ± S.E.M. ([3]; 25 mg/kg p.o.): 1.0 ± 0.3
Inhibition ([3]; 25 mg/kg p.o.): 41.2%
Lesion score/stomach ± S.E.M. ([3]; 50 mg/kg p.o.): 0.4 ± 0.2
Inhibition ([3]; 50 mg/kg p.o.): 76.5%
Lesion score/stomach ± S.E.M. ([3]; 100 mg/kg p.o.): 0*
Inhibition ([3]; 100 mg/kg p.o.): 100%
ED50 (dose decreasing score of gastric lesions by 50%) ([3]; oral administration): 29.4 mg/kg
Inhibition ([4]; 1.0 mg/kg p.o.): 15.7%
Lesion number/stomach ± S.E.M. ([4]; 1.0 mg/kg p.o.): 15.6 ± 6.2
Inhibition ([4]; 10.0 mg/kg p.o.): 68.1%
Lesion number/stomach ± S.E.M. ([4]; 10.0 mg/kg p.o.): 5.9 ± 1.9
Inhibition ([4]; 100 mg/kg p.o.): 89.2%
Lesion number/stomach ± S.E.M. ([4]; 100 mg/kg p.o.): 2.0 ± 0.9
ED50 (dose protecting the stomach by 50% from indomethacin) ([4]; p.o.): 6.2 mg/kg
Effect on the intestinal motility (in words) [5]: absence of change in activity
Ratio of charcoal suspension to the whole intestinal part [5]: 0.83 ± 0.03
Propulsion of charcoal suspension mm ± S.E.M. ([5]; 30 min before charcoal, 60 min after charcoal): 655 ± 3.9 mm
Inhibition ([6]; 50 mg/kg p.o.): 27.3%
Lesion score/stomach ± S.E.M. ([6]; 50 mg/kg p.o.): 1.6 ± 0.4
Inhibition ([6]; 100 mg/kg p.o.): 40.9%
Lesion score/stomach ± S.E.M. ([6]; 100 mg/kg p.o.): 1.3 ± 0.2
Protection against ulcerogenic effect of PAF (in words) ([6]; rat, in vivo): strongly reduced the ulcerogenic effect of PAF
